Patent US11548875B2, “Inhibitor compounds for male contraception” (University of Washington, priority 2018, dated 2023)

Molecular target: T1, ALDH1A1 (Homo sapiens, UniProt P00352)
T1 sequence (P00352 1-501): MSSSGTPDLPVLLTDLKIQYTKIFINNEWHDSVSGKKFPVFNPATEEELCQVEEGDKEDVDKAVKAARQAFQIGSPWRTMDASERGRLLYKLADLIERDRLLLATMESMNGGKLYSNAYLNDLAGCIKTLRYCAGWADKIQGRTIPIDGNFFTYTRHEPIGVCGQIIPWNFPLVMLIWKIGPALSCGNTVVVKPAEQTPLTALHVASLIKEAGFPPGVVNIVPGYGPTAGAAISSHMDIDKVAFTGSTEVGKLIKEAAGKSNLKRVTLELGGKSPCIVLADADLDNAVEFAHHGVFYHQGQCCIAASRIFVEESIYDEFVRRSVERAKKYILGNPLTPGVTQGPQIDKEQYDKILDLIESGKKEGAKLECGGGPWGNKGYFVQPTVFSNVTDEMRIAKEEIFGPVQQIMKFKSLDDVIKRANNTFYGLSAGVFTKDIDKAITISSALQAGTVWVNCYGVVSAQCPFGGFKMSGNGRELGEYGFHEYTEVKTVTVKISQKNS
Assay: Inhibitor screening using purified enzymes: ALDH1A1 activity, retinoic acid production by HPLC
Format: biochemical
Conditions: purified enzyme
Excerpt: ALDHs were cloned into bacterial expression vector for in vitro enzyme assays and into mammalian expression vectors for cell-based enzyme assays. Human ALDH1A1 cDNA and human ALDH2 cDNA were purchased from OriGene (SC321535) and Open Biosystems (MHS4771-99611182), respectively. and human ALDH1A2 cDNA was cloned from human testis RNA using RT-PCR (Population Division of the Department of Economic and Social Affairs of the United Nations Secretariat. World Population prospects: the 2008 revision. Available at http://www.un.org/esa/population/ (Retrieved Sep. 30, 2011)). For bacterial expression, an open reading frame of ALDH1A1 and ALDH2 were subcloned into the pETite vector (Lucigen) with a 5′ histidine-tag and that of ALDH1A2 into a pET28 vector (Novagen) with a 3′ histidine-tag. Correct frame and sequences were verified through DNA sequencing (UW DNA sequencing facility). ALDHs were induced with 1 mM IPTG and purified using His.Bind resin (Novagen, San Diego, Calif.) and stored in a buffer containing 20 mM Hepes (pH 8), 150 mM KCl and 1 mM EDTA as previously described (Fierce, Y., de Morais Vieira, M., Piantedosi, R., Wyss, A., Blaner, W. S., and Paik, J. (2008) In vitro and in vivo characterization of retinoid synthesis from beta-carotene. Archives of biochemistry and biophysics 472, 126-138).
ALDH1A1 and ALDH1A2 activity was determined as previously reported (Beedle M T, Stevison F, Zhong G, Topping T, Hogarth C, Isoherranen N, Griswold M D. Sources of All-Trans Retinal Oxidation Independent of the Aldehyde Dehydrogenase 1A Isozymes Exist in the Postnatal Testis. Biol Reprod. 2018 Sep. 21. doi: 10.1093/biolre/ioy200). Briefly, purified enzymes were incubated in a buffer containing 10 mM HEPES buffer (pH 8.0), 150 mM potassium chloride and 2 mM EDTA with 2 mM NAD. Retinoic acid production was determined using HPLC as previously reported (Amory J K, Muller C H, Shimshoni A J, Isoherranen N, Paik J, Moreb J S, Amory D W, Evanoff R, Goldstein A S, Griswold M D. Suppression of spermatogenesis by bisdichloroacetyldiamines is mediated by inhibition of testicular retinoic acid biosynthesis. Journal of Andrology 2011; 32(1):111-119). Inhibitors were diluted in DMSO and added to the reactions. […] For initial screening of inhibitors for ALDH1A2, 1 μg ALDH1A2, 5 μM all-trans-retinal and 5 μM inhibitors were incubated for 15 min at 37° C. […] For this purpose, 0.5 μg ALDH1A2 and […] were incubated for 5 minutes at 37° C. with varying concentrations of inhibitors. To determine specificity toward ALDH1A2, the IC50 for […]

IC50 | Molecule
0.23 µM | Cn1cccc1C(=O)N1CCN(c2ccc(NC(=O)C(Cl)Cl)c(N3CCCC3)c2)CC1 [Compound 367, 1-[4-(4-N-Dichloroacetyl-3-(pyrrolidin-1-yl)phenyl]piperazin-1-yl](1-methyl-1H-pyrrol-2-yl)methanone]
1.65 µM | O=C(c1cccc(Cl)c1)N1CCN(c2ccc([N+](=O)[O-])c(N3CCCC3)c2)CC1 [Compound 341, 3-Chlorophenyl-1-{4-[4-nitro-3-(pyrrolidin-1-yl)phenyl]piperazin-1-yl}methanone]
0.249 µM | N#Cc1ccc(-n2cc(C(=O)Nc3cccc(F)c3)c(-c3ccc(NC(=O)C(Cl)Cl)cc3)n2)cc1 [Compound 316a, 3-(4-Dichloroacetamidophenyll)-N-(3-fluorophenyl)-1-(4-cyanophenyl)-1H-pyrazole-4-carboxamide]
1.44 µM | Cn1cccc1C(=O)N1CCN(c2ccc(-c3ccc([N+](=O)[O-])cc3)c(N3CCCCC3)c2)CC1 [Compound 373]
1.07 µM | CC(=O)n1cccc1C(=O)N1CCN(c2ccc([N+](=O)[O-])c(N3CCCC3)c2)CC1 [Compound 347, {4-[4-Nitro-3-(pyrrolidin-1-yl)phenyl]piperazin-1-yl}(1-acetyl-pyrrol-2yl)methanone]
0.3 µM | Cn1cccc1C(=O)N1CCN(c2ccc(NC(=O)CCl)c(N3CCCC3)c2)CC1 [Compound 372, 1-[4-(4-N-Chloroacetyl-3-(pyrrolidin-1-yl)phenyl]piperazin-1-yl](1-methyl-1H-pyrrol-2-yl)methanone]
0.675 µM | O=C(c1ccccc1)N1CCN(c2ccc([N+](=O)[O-])c(N3CCCC3)c2)CC1 [Compound 339, Phenyl-1-{4-[4-nitro-3-(pyrrolidin-1-yl)phenyl]piperazin-1-yl}methanone]
0.453 µM | O=C(c1ccc[nH]1)N1CCN(c2ccc([N+](=O)[O-])c(N3CCCC3)c2)CC1 [Compound 344, {4-[4-Nitro-3-(pyrrolidin-1-yl)phenyl]piperazin-1-yl}(1H-pyrrol-2-yl)methanone]

Molecule | IC50
3-(4-Acryloylphenyl)-1-phenyl-1H-pyrazole-4-carbaldehyde [Compound 309] | 0.005 µM
3-{4-[(Chloroacetyl)amino]phenyl}-N-(3-fluorophenyl)-1-phenyl-1H-pyrazole-4-carboxamide [Compound 294] | 0.003 µM
